Values after ≈ are worked out from the molar mass of the structure shown.

The test system of series [1] is Mycobacterium tuberculosis. The series can be described thus: Antimycobacterial activity against Mycobacterium tuberculosis H37Rv ATCC 27294 by microplate alamar blue assay. The series is classed as functional. A general note: The colour change of resazurin is a common sign of viable cells or microbes.
The nature of series [2]: Cytotoxicity against mouse J774 cells assessed as cell viability at 1 ug/ml by MTT assay. The settings on record: read-out: Activity. The series is classed as cell-based.
Series [3] in a line: Cytotoxicity against mouse J774 cells infected with Mycobacterium bovis BCG assessed as cell viability at 100 ug/ml by MTT assay. The conditions noted are these: read-out: Activity. The series is classed as cell-based. (Tetrazolium assays rely on reduction of a dye to a coloured formazan, in cell work by metabolically active cells.)
Series [4] is described as follows: Cytotoxicity against mouse J774 cells assessed as cell viability at 100 ug/ml by MTT assay. The conditions noted are these: read-out: Activity. Format: cell-based.
Series [5] is described as follows: Cytotoxicity against mouse J774 cells infected with Mycobacterium bovis BCG assessed as cell viability at 1 ug/ml by MTT assay. The series is classed as cell-based. The settings on record: read-out: Activity.
Series [6] is described as follows: Cytotoxicity against mouse J774 cells assessed as cell viability at 10 ug/ml by MTT assay. The conditions noted are these: read-out: Activity. Format: cell-based.
Series [7] is described as follows: Cytotoxicity against mouse J774 cells infected with Mycobacterium bovis BCG assessed as cell viability at 10 ug/ml by MTT assay. The series is classed as cell-based. The conditions noted are these: read-out: Activity.

Usually MIC stands for the lowest concentration found to suppress growth. Lower therefore signals a more susceptible organism. Compound `O=[N+]([O-])c1ccccc1/C=N/Nc1ccnc2cc(Cl)ccc12` had a minimal inhibitory concentration (MIC) in series [1] of over 100 µg/mL. The same measure, in the same setting: under `Clc1ccc2c(N/N=C/c3ccccc3Br)ccnc2c1` stands over 100 µg/mL. As for `Clc1ccc2c(N/N=C/c3ccc(Br)cc3)ccnc2c1`, the viability at 1 ug/ml in series [2] and in series [5] was 100% throughout. The viability at 100 ug/ml in series [3] is 85%; in series [4] it was 91%. The same compound yielded a minimal inhibitory concentration (MIC) in series [1] of 2.5 µg/mL (≈ 6.93 µM). Also, the viability at 10 ug/ml in series [6] and in series [7] was 100% each time. Compound `N#Cc1ccc(/C=N/Nc2ccnc3cc(Cl)ccc23)cc1` yielded an MIC in series [1] of over 100 µg/mL. The same measure, in the same setting: under `O=[N+]([O-])c1cccc(/C=N/Nc2ccnc3cc(Cl)ccc23)c1` stands over 100 µg/mL; under `O=[N+]([O-])c1ccc(/C=N/Nc2ccnc3cc(Cl)ccc23)cc1`, over 100 µg/mL; under `Fc1cccc(/C=N/Nc2ccnc3cc(Cl)ccc23)c1`, over 100 µg/mL. Take `Clc1ccc2c(N/N=C/c3cccc(Br)c3)ccnc2c1`: the viability at 1 ug/ml in series [2] is 88%. For the same compound, the viability at 100 ug/ml in series [4] was found to be 3%. In series [1], this compound had a minimal inhibitory concentration (MIC) of 3.12 µg/mL (≈ 8.65 µM). Further, the viability at 10 ug/ml in series [6] amounted to 60%.

In series [1], `Clc1ccc2c(N/N=C/c3ccccc3)ccnc2c1` returned a minimal inhibitory concentration (MIC) of over 100 µg/mL. Same read-out and setting: then `Oc1cccc(/C=N/Nc2ccnc3cc(Cl)ccc23)c1`, with over 100 µg/mL. Regarding `CC[C@@H](CO)NCCN[C@@H](CC)CO` [ETHAMBUTOL], the viability at 1 ug/ml in series [2] amounted to 100%. It took 3.25 µg/mL (≈ 15.9 µM) to inhibit growth in series [1] (MIC).

The record behind these values is ChEMBL document CHEMBL1156096, “Synthesis and antitubercular activity of 7-chloro-4-quinolinylhydrazones derivatives” (Bioorg Med Chem Lett, 2009).
